PubChem BioAssay (NCI)
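GI50 = concentration required for 50% inhibition of growth. TGI: total growth inhibition.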

Experiments:
Test in all cases: DTP human tumour cell line panel, 384-well format
UO-31 renal = system: UO-31 renal
NCI-H460 NSCLC = system: NCI-H460 NSCLC
M14 melanoma = system: M14 melanoma
CAKI-1 renal = system: CAKI-1 renal
T-47D breast = system: T-47D breast
K-562 leukemia = system: K-562 leukemia
SW-620 colon = system: SW-620 colon
OVCAR-3 ovarian = system: OVCAR-3 ovarian
SR leukemia = system: SR leukemia
HL-60(TB) leukemia = system: HL-60(TB) leukemia
NCI-H23 lung = system: NCI-H23 lung
HT29 colon = system: HT29 colon
A549 NSCLC = system: A549 NSCLC
SK-MEL-2 melanoma = system: SK-MEL-2 melanoma
786-0 renal = system: 786-0 renal
SF-539 CNS = system: SF-539 CNS
RXF 393 renal = system: RXF 393 renal
HCT-15 colon = system: HCT-15 colon
MALME-3M melanoma = system: MALME-3M melanoma
SNB-19 CNS = system: SNB-19 CNS
COLO 205 colon = system: COLO 205 colon
MDA-MB-435 melanoma = system: MDA-MB-435 melanoma
IGROV1 ovarian = system: IGROV1 ovarian
CCRF-CEM leukemia = system: CCRF-CEM leukemia
MDA-MB-231 breast = system: MDA-MB-231 breast
HOP-62 NSCLC = system: HOP-62 NSCLC
SN12C renal = system: SN12C renal
HOP-92 NSCLC = system: HOP-92 NSCLC
TK-10 renal = system: TK-10 renal
NCI/ADR-RES ovarian = system: NCI/ADR-RES ovarian
OVCAR-5 ovarian = system: OVCAR-5 ovarian
SK-MEL-5 melanoma = system: SK-MEL-5 melanoma
KM12 colon = system: KM12 colon
PC-3 prostate = system: PC-3 prostate
MCF7 breast = system: MCF7 breast
SK-MEL-28 melanoma = system: SK-MEL-28 melanoma
OVCAR-8 ovarian = system: OVCAR-8 ovarian
SF-268 CNS = system: SF-268 CNS
NCI-H522 lung = system: NCI-H522 lung
HCT-116 colon = system: HCT-116 colon
LOX IMVI melanoma = system: LOX IMVI melanoma
RPMI-8226 leukemia = system: RPMI-8226 leukemia
MOLT-4 leukemia = system: MOLT-4 leukemia
NCI-H226 lung = system: NCI-H226 lung
HCC-2998 colon = system: HCC-2998 colon
OVCAR-4 ovarian = system: OVCAR-4 ovarian
MDA-MB-468 breast = system: MDA-MB-468 breast
SK-OV-3 ovarian = system: SK-OV-3 ovarian
A498 renal = system: A498 renal
ACHN renal = system: ACHN renal
NCI-H322M lung = system: NCI-H322M lung
DU-145 prostate = system: DU-145 prostate
BT-549 breast = system: BT-549 breast
SF-295 CNS = system: SF-295 CNS
U251 glioblastoma = system: U251 glioblastoma
UACC-62 melanoma = system: UACC-62 melanoma
UACC-257 melanoma = system: UACC-257 melanoma

## CC1(C)CCC2(CC1)N[C@@H](C(=O)N[C@@H]1CC[C@@H](C(N)=O)OC1)[C@H](c1ccnc(Cl)c1F)[C@]21C(=O)Nc2cc(Cl)ccc21
UO-31 renal
  GI50: 78.5 nM
  TGI: 335 nM
NCI-H460 NSCLC
  GI50: 31.2 nM
  TGI: 1130 nM
M14 melanoma
  GI50: 47.3 nM
  TGI: 2030 nM
CAKI-1 renal
  GI50: < 10 nM
  TGI: 347 nM
T-47D breast
  GI50: 1630 nM
  TGI: 4100 nM
K-562 leukemia
  GI50: 1640 nM
  TGI: 3030 nM
SW-620 colon
  GI50: 3320 nM
  TGI: 11100 nM
OVCAR-3 ovarian
  GI50: 1660 nM
  TGI: 3220 nM
SR leukemia
  GI50: < 10 nM
HL-60(TB) leukemia
  GI50: 2110 nM
  TGI: 3550 nM
NCI-H23 lung
  GI50: 2040 nM
  TGI: 5350 nM
HT29 colon
  GI50: 1730 nM
  TGI: 3240 nM
A549 NSCLC
  GI50: 74.6 nM
  TGI: 1300 nM
SK-MEL-2 melanoma
  GI50: 1880 nM
  TGI: 3320 nM
786-0 renal
  GI50: 2020 nM
  TGI: 4300 nM
SF-539 CNS
  GI50: 1660 nM
  TGI: 3120 nM
RXF 393 renal
  GI50: 1420 nM
  TGI: 2840 nM
HCT-15 colon
  GI50: 1910 nM
  TGI: 3690 nM
MALME-3M melanoma
  GI50: 77.7 nM
  TGI: 1040 nM
SNB-19 CNS
  GI50: 2350 nM
  TGI: 5150 nM
COLO 205 colon
  GI50: 1910 nM
  TGI: 3420 nM
MDA-MB-435 melanoma
  GI50: 1810 nM
  TGI: 3440 nM
IGROV1 ovarian
  GI50: 224 nM
  TGI: 2440 nM
CCRF-CEM leukemia
  GI50: 1920 nM
  TGI: 3430 nM
MDA-MB-231 breast
  GI50: 1820 nM
  TGI: 3400 nM
HOP-62 NSCLC
  GI50: 1850 nM
  TGI: 3780 nM
SN12C renal
  GI50: 2670 nM
  TGI: 7980 nM
HOP-92 NSCLC
  GI50: 1710 nM
  TGI: 3530 nM
TK-10 renal
  GI50: 2500 nM
  TGI: 7330 nM
NCI/ADR-RES ovarian
  GI50: 14000 nM
  TGI: 27200 nM
OVCAR-5 ovarian
  GI50: 2280 nM
  TGI: 5340 nM
SK-MEL-5 melanoma
  GI50: 668 nM
  TGI: 2070 nM
KM12 colon
  GI50: 1980 nM
  TGI: 3820 nM
PC-3 prostate
  GI50: 1840 nM
  TGI: 3330 nM
MCF7 breast
  GI50: 31.2 nM
  TGI: 741 nM
SK-MEL-28 melanoma
  GI50: 1710 nM
  TGI: 3150 nM
OVCAR-8 ovarian
  GI50: 2400 nM
  TGI: 5610 nM
SF-268 CNS
  GI50: 2120 nM
  TGI: 4560 nM
NCI-H522 lung
  GI50: 1580 nM
  TGI: 3020 nM
HCT-116 colon
  GI50: 35.2 nM
  TGI: 1390 nM
LOX IMVI melanoma
  GI50: 345 nM
  TGI: 1880 nM
RPMI-8226 leukemia
  GI50: 1660 nM
  TGI: 3040 nM
MOLT-4 leukemia
  GI50: < 10 nM
  TGI: 11.9 nM
NCI-H226 lung
  GI50: 11.8 nM
  TGI: 65.9 nM
HCC-2998 colon
  GI50: 1340 nM
  TGI: 2700 nM
OVCAR-4 ovarian
  GI50: 1910 nM
  TGI: 5550 nM
MDA-MB-468 breast
  GI50: 1930 nM
  TGI: 3710 nM
SK-OV-3 ovarian
  GI50: 1800 nM
  TGI: 3670 nM
A498 renal
  GI50: 24.4 nM
  TGI: 971 nM
ACHN renal
  GI50: 28.5 nM
  TGI: 650 nM
NCI-H322M lung
  GI50: 2300 nM
  TGI: 5990 nM
DU-145 prostate
  GI50: 2660 nM
  TGI: 6740 nM
BT-549 breast
  GI50: 1740 nM
  TGI: 3780 nM
SF-295 CNS
  GI50: 1740 nM
  TGI: 3290 nM
U251 glioblastoma
  GI50: 2080 nM
  TGI: 4450 nM
UACC-62 melanoma
  GI50: < 10 nM
  TGI: 1070 nM
UACC-257 melanoma
  GI50: 94.6 nM
  TGI: 490 nM
